Test results reported in patent US12343326B2, “Psychoactive medicines and their use for treating psychiatric and neurological conditions and disorders” (Transcend Therapeutics, Inc., priority 2021, dated 2025).

Legend:
Test in all cases: β-arrestin based GPCR screen (PathHunter / GPCRmax), antagonist mode
168 GPCRs [1] = molecular target: 168 GPCRs (Homo sapiens, UniProt P08913); settings: ADRA2A, Antagonist
168 GPCRs [2] = molecular target: 168 GPCRs (Homo sapiens, UniProt P51582)
168 GPCRs [3] = molecular target: 168 GPCRs (Homo sapiens, UniProt P21917)
168 GPCRs [4] = molecular target: 168 GPCRs (Homo sapiens, UniProt P25929); settings: NPY1R
168 GPCRs [5] = molecular target: 168 GPCRs (Homo sapiens, UniProt P30874)
168 GPCRs [6] = molecular target: 168 GPCRs (Homo sapiens, UniProt P55085)
168 GPCRs [7] = molecular target: 168 GPCRs (Homo sapiens, UniProt P21462)
168 GPCRs [8] = molecular target: 168 GPCRs (Homo sapiens, UniProt O43613)
168 GPCRs [9] = molecular target: 168 GPCRs (Homo sapiens, UniProt Q8TDV5)
168 GPCRs [10] = molecular target: T1, 168 GPCRs (Homo sapiens, UniProt Q96RI0)
T1 sequence (Q96RI0 18-385): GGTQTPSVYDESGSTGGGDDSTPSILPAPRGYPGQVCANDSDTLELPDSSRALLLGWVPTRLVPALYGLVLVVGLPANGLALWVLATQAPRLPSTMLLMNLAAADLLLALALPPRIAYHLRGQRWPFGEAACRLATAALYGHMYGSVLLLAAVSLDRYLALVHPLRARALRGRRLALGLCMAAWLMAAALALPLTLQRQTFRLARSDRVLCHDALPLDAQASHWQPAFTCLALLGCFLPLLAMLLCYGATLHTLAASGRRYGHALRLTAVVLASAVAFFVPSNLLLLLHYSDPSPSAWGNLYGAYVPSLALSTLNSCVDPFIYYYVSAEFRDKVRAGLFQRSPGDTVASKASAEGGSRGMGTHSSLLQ

168 GPCRs [11] = molecular target: 168 GPCRs (Homo sapiens, UniProt P25105); settings: PTAFR
168 GPCRs [12] = molecular target: 168 GPCRs (Homo sapiens, UniProt P08912); settings: CHRM5, Antagonist
168 GPCRs [13] = molecular target: 168 GPCRs (Homo sapiens, UniProt O95136)
168 GPCRs [14] = molecular target: 168 GPCRs (Homo sapiens, UniProt P34981); settings: TRHR
168 GPCRs [15] = molecular target: 168 GPCRs (Homo sapiens, UniProt P08172); settings: CHRM2, Antagonist
168 GPCRs [16] = molecular target: 168 GPCRs (Homo sapiens, UniProt P47871); settings: GCGR
168 GPCRs [17] = molecular target: 168 GPCRs (Homo sapiens, UniProt P61073)
168 GPCRs [18] = molecular target: 168 GPCRs (Homo sapiens, UniProt Q9P296); settings: C5L2, Antagonist
168 GPCRs [19] = molecular target: 168 GPCRs (Homo sapiens, UniProt P35346)

168 GPCRs (Homo sapiens, UniProt P61073), sequence (P61073 whole entry): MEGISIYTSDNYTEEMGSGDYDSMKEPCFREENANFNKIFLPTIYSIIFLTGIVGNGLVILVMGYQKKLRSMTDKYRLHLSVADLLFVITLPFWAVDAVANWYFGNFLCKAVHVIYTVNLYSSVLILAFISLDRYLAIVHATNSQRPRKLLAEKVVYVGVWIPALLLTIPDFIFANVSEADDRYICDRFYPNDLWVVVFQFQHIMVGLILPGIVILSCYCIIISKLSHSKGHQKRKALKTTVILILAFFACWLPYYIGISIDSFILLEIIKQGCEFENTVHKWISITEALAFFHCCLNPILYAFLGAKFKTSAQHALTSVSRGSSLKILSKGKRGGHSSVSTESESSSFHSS
168 GPCRs (Homo sapiens, UniProt P51582), sequence (P51582 whole entry): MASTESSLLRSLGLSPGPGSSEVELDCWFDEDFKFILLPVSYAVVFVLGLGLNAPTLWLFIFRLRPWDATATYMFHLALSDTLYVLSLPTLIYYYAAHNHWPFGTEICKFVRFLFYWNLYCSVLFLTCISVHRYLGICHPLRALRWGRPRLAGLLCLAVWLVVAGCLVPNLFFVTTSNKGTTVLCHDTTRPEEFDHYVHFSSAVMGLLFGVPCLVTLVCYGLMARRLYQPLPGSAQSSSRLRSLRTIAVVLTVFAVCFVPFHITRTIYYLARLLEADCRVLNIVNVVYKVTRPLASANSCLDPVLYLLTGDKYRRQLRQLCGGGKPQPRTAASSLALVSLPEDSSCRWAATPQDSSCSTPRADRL
168 GPCRs (Homo sapiens, UniProt O95136), sequence (O95136 whole entry): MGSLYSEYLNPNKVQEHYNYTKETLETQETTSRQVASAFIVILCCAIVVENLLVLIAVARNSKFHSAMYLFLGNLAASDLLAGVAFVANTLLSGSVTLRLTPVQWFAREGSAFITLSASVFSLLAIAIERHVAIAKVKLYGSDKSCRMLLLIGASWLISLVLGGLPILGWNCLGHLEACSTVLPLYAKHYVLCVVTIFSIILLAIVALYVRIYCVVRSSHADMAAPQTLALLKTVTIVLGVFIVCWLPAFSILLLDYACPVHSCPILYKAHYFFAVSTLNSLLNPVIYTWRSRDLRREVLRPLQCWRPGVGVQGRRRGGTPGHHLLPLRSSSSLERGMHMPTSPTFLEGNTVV
168 GPCRs (Homo sapiens, UniProt Q9P296), sequence (Q9P296 whole entry): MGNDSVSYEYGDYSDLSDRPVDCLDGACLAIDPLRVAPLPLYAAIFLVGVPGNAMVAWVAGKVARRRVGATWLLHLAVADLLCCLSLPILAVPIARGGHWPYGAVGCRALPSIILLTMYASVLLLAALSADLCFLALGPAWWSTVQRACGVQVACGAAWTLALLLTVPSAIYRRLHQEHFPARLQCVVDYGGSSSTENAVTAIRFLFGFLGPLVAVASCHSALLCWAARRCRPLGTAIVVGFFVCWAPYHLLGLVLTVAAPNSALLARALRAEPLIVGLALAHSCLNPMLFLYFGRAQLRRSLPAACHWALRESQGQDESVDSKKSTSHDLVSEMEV
168 GPCRs (Homo sapiens, UniProt P21462), sequence (P21462 whole entry): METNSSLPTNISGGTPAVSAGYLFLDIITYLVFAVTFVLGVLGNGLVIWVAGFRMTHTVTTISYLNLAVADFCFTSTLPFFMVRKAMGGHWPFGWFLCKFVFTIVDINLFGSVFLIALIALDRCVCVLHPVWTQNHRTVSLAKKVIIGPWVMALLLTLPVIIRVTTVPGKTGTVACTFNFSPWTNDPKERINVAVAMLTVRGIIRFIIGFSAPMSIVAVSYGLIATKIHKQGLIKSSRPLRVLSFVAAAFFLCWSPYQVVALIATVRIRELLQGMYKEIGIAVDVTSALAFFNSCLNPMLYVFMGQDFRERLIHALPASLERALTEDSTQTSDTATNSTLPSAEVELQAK
168 GPCRs (Homo sapiens, UniProt P08912), sequence (P08912 whole entry): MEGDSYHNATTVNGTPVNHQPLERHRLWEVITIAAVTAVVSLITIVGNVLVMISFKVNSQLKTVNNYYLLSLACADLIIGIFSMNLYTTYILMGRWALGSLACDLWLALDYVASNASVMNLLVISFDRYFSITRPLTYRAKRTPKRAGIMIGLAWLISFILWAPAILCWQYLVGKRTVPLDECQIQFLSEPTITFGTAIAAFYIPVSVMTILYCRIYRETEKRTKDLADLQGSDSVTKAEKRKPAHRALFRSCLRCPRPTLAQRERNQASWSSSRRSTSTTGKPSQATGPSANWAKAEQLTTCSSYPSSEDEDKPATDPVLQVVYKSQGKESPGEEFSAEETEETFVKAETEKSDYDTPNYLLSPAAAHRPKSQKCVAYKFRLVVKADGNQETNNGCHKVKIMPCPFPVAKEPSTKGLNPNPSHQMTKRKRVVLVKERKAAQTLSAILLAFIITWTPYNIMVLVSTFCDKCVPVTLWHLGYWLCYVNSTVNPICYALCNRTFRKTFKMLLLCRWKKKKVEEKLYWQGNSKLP
168 GPCRs (Homo sapiens, UniProt Q8TDV5), sequence (Q8TDV5 whole entry): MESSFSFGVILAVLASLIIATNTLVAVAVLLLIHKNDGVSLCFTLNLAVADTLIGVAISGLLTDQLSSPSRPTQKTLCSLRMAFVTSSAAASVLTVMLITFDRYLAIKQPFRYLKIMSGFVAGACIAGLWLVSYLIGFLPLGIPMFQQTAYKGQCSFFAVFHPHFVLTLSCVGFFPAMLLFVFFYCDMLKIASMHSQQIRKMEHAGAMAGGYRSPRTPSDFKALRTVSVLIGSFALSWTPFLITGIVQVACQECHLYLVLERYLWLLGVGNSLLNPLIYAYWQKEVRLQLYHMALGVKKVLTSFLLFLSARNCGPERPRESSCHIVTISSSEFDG
168 GPCRs (Homo sapiens, UniProt O43613), sequence (O43613 whole entry): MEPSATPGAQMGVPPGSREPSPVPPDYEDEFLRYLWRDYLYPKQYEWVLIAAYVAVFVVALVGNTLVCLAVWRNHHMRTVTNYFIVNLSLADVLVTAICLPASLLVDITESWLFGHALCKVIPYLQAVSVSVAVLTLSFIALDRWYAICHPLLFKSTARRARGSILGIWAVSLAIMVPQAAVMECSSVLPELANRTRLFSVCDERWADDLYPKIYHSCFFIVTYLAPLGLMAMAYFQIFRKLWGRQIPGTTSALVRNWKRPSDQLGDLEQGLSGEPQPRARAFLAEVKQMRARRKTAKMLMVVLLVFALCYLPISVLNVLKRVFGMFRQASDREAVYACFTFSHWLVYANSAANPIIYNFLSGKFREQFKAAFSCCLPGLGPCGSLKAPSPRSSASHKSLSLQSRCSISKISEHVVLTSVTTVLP
168 GPCRs (Homo sapiens, UniProt P30874), sequence (P30874 whole entry): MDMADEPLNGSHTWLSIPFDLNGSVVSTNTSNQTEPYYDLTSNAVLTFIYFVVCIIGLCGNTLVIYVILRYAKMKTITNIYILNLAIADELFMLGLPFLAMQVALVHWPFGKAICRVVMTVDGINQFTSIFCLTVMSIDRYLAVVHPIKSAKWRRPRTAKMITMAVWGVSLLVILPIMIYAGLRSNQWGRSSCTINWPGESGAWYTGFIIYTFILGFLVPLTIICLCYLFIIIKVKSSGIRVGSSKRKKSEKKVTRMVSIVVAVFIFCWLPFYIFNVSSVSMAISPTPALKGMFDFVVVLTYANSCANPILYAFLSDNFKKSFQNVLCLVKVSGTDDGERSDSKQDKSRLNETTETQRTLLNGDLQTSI
168 GPCRs (Homo sapiens, UniProt P55085), sequence (P55085 26-397): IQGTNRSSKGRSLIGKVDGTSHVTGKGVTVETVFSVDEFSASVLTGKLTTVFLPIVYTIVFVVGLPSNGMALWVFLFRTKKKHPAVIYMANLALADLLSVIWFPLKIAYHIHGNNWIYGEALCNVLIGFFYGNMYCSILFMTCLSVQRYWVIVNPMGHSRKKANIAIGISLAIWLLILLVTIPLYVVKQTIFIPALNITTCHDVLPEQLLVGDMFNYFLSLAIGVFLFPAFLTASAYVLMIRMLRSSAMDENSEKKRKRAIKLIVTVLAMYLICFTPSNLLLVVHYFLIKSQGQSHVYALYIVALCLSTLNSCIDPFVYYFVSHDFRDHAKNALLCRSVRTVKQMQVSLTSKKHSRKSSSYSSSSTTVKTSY
168 GPCRs (Homo sapiens, UniProt P08913), sequence (P08913 whole entry): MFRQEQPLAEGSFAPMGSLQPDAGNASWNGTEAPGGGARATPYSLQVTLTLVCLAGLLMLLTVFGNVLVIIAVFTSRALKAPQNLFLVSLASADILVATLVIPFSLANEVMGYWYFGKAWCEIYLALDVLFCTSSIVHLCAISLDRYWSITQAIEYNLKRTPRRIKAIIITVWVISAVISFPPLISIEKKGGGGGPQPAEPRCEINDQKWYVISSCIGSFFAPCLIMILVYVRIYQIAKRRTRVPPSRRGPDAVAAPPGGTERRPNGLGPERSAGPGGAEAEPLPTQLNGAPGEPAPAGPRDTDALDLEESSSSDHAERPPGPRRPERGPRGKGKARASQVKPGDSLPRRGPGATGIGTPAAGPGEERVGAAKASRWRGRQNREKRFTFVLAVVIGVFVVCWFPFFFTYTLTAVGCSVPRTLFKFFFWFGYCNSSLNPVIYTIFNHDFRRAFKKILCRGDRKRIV
168 GPCRs (Homo sapiens, UniProt P34981), sequence (P34981 whole entry): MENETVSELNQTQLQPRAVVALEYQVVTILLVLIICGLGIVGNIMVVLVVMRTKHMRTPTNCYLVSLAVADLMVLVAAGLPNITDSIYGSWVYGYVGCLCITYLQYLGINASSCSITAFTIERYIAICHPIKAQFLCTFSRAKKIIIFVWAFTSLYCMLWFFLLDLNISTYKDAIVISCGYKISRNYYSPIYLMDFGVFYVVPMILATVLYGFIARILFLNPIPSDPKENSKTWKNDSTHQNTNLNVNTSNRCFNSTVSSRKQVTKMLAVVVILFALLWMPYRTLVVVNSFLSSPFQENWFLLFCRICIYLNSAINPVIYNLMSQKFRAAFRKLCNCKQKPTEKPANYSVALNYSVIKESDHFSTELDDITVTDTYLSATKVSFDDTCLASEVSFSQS

SMILES: CNC(C)C(=O)c1ccc2c(c1)OCO2 (centres unmarked) [methylone, 3,4-methylenedioxy-N-methylcathinone]
- activity at 1 µM (168 GPCRs [1]; 1 uM): -4.6%
- activity at 10 µM (168 GPCRs [1]; 10 uM): 1.9%
- activity at 10 µM (168 GPCRs [2]; P2RY4, Antagonist mode, 10 uM): 17.5%
- activity at 1 µM (168 GPCRs [2]; P2RY4, Antagonist, 1 uM): 15.1%
- activity at 10 µM (168 GPCRs [3]; DRD4, Antagonist mode, 10 uM): 12.2%
- activity at 1 µM (168 GPCRs [3]; DRD4, Antagonist, 1 uM): 8.4%
- activity at 10 µM (168 GPCRs [4]; Antagonist mode, 10 uM): 5.4%
- activity at 1 µM (168 GPCRs [4]; Antagonist, 1 uM): 0.2%
- activity at 10 µM (168 GPCRs [5]; SSTR2, Antagonist mode, 10 uM): -4.2%
- activity at 1 µM (168 GPCRs [5]; SSTR2, Antagonist, 1 uM): -0.4%
- activity at 10 µM (168 GPCRs [6]; F2RL1, Antagonist mode, 10 uM): 16.2%
- activity at 1 µM (168 GPCRs [6]; F2RL1, Antagonist, 1 uM): -26.8%
- activity at 10 µM (168 GPCRs [7]; FPR1, Antagonist mode, 10 uM): -11.4%
- activity at 1 µM (168 GPCRs [7]; FPR1, Antagonist, 1 uM): -4.9%
- activity at 10 µM (168 GPCRs [8]; HCRTR1, Antagonist mode, 10 uM): 1.2%
- activity at 1 µM (168 GPCRs [8]; HCRTR1, Antagonist, 1 uM): 2.3%
- activity at 10 µM (168 GPCRs [9]; GPR119, Antagonist mode, 10 uM): -8.8%
- activity at 1 µM (168 GPCRs [9]; GPR119, Antagonist, 1 uM): 17.1%
- activity at 10 µM (168 GPCRs [10]; F2RL3, Antagonist mode, 10 uM): -6.9%
- activity at 1 µM (168 GPCRs [10]; F2RL3, Antagonist, 1 uM): -11.3%
- activity at 10 µM (168 GPCRs [11]; Antagonist mode, 10 uM): -6.7%
- activity at 1 µM (168 GPCRs [11]; Antagonist, 1 uM): 2%
- activity at 1 µM (168 GPCRs [12]; 1 uM): -8%
- activity at 10 µM (168 GPCRs [12]; 10 uM): -7.6%
- activity at 10 µM (168 GPCRs [13]; EDG5, Antagonist mode, 10 uM): -6.3%
- activity at 1 µM (168 GPCRs [13]; EDG5, Antagonist, 1 uM): -3.4%
- activity at 10 µM (168 GPCRs [14]; Antagonist mode, 10 uM): 2.8%
- activity at 1 µM (168 GPCRs [14]; Antagonist, 1 uM): -7.2%
- activity at 1 µM (168 GPCRs [15]; 1 uM): -18.5%
- activity at 10 µM (168 GPCRs [15]; 10 uM): -7.4%
- activity at 10 µM (168 GPCRs [16]; Antagonist mode, 10 uM): -7.7%
- activity at 1 µM (168 GPCRs [16]; Antagonist, 1 uM): -16%
- activity at 10 µM (168 GPCRs [17]; CXCR4, Antagonist mode, 10 uM): -4.2%
- activity at 1 µM (168 GPCRs [17]; CXCR4, Antagonist, 1 uM): 10.7%
- activity at 1 µM (168 GPCRs [18]; 1 uM): 10%
- activity at 10 µM (168 GPCRs [18]; 10 uM): 1.4%
- activity at 10 µM (168 GPCRs [19]; SSTR5, Antagonist mode, 10 uM): 5.7%
- activity at 1 µM (168 GPCRs [19]; SSTR5, Antagonist, 1 uM): 14.7%
